Values of other authors in US20200016150A1, “TREATMENT OF THE PRURITIC SYMPTOMS OF LIVER DISEASE” (TREVI THERAPEUTICS, INC., priority 2018, published 2020).

Conditions: injectable formulations (i.e., IV or IM or SC)

Cl.Oc1ccc2c3c1OC1[C@@H](O)CC[C@@]4(O)[C@@H](C2)N(CC2CCC2)CC[C@]314 (stereo partly drawn) [nalbuphine, 17-(cyclobutylmethyl)-4,5α-epoxymorphinan-3, 6α, 14-triol, hydrochloride]
half-life: 2 to 3 h
